Patent US20110044938A1 (NYCOMED GMBH, priority 2006, published 2011)

Key:
[1] = tested on: subclones of RKO colon adenocarcinoma cells (RKOp27 or RKOp21) arrested by Ponasterone A; test: Alamar Blue cell viability assay, cell cycle specific mode of action: cells arrested by ectopic p27Kip1 induced by Ponasterone A versus proliferating cells; type: cell-based; details: Homo sapiens, RKO p27 induced (arrested) cells, 10 μM Ponasterone A, 72 hours, value = class bound given in Table A, read-out: −logIC50 RKO p27 induced (arrested) (converted)
Procedure, shortened: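 Viability of proliferating versus Ponasterone A (10 μM)-arrested RKOp27/RKOp21 cells after 72 h compound exposure at 37° C, in quadruplicate. Read-out is Alamar Blue fluorescence (544/590 nm) normalised to untreated cells = 100%; values as −log IC50.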

[2] = tested on: RKO (RKOp27) human colon adenocarcinoma cells; test: Alamar Blue cell viability assay, anti-proliferative/cytotoxic activity on proliferating RKO subclones; type: cell-based; details: RKOp27, 72 h, RKO p27 uninduced (proliferating) cells, value = class bound given in Table A, read-out: −logIC50 RKO p27 uninduced (proliferating) (converted)
Procedure, shortened: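 Alamar Blue fluorescence (ex 544, em 590 nm) after 72 h compound exposure at 37 °C, 5% CO2, normalised to untreated controls set at 100%. Cells were seeded at 5000 per well and dosed 24 h later with serial semi-logarithmic dilutions in 10% FCS DMEM, four replicates each. −log IC50 [mol/l] was derived from concentration-effect curves.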

Row | SMILES | IC50 [1] [µM] | IC50 [2] [µM]
1 | N#Cc1c(NC(=O)/C=C/c2cccnc2)sc2c1CCC(OC(=O)NC1CCC1)C2 (stereo not drawn) [Example 139, Cyclobutyl-carbamic acid 3-cyano-2-((E)-3-pyridin-3-yl-allanoylamino)-4,5,6,7-tetrahydro-benzo[b]thiophen-6-yl ester] | ≥ 100 | ≤ 0.501
2 | CN(C)c1ncc(CNC(=O)OCC2CCc3c(sc(NC(=O)/C=C/c4cccnc4)c3C#N)C2)s1 (stereo not drawn) [Example 140, (2-Dimethyl-amino-thiazol-5-ylmethyl)-carbamic acid 3-cyano-2-((E)-3-pyridin-3-yl-allanoylamino)-4,5,6,7-tetrahydro-benzo[b]thiophen-6-ylmethyl ester] | ≥ 100 | ≤ 0.501
3 | N#Cc1c(NC(=O)/C=C/c2cccnc2)sc2c1CCC(COC(=O)N1CC[C@H](O)C1)C2 (stereo partly drawn) [Example 144, (S)-3-Hydroxy-pyrrolidine-1-carboxylic acid 3-cyano-2-((E)-3-pyridin-3-yl-allanoylamino)-4,5,6,7-tetrahydro-benzo[b]thiophen-6-ylmethyl ester] | ≥ 100 | ≤ 0.501
4 | N#Cc1c(NC(=O)/C=C/c2cccnc2)sc2c1CCC(OC(=O)N1CC[C@H](O)C1)C2 (stereo partly drawn) [Example 146, (S)-3-Hydroxy-pyrrolidine-1-carboxylic acid 3-cyano-2-((E)-3-pyridin-3-yl-allanoylamino)-4,5,6,7-tetrahydro-benzo[b]thiophen-6-yl ester] | ≥ 100 | ≤ 0.501
5 | N#Cc1c(NC(=O)/C=C/c2cccnc2)sc2c1CCC(OC(=O)N1CC[C@@H](O)C1)C2 (stereo partly drawn) [Example 147, (R)-3-Hydroxy-pyrrolidine-1-carboxylic acid 3-cyano-2-((E)-3-pyridin-3-yl-allanoylamino)-4,5,6,7-tetrahydro-benzo[b]thiophen-6-yl ester] | ≥ 100 | 0.501 to 2
6 | N#Cc1c(NC(=O)/C=C/c2cccnc2)sc2c1CCC(OC(=O)NC1COC1)C2 (stereo not drawn) [Example 148, Oxetan-3-yl-carbamicacid 3-cyano-2-((E)-3-pyridin-3-yl-allanoylamino)-4,5,6,7-tetrahydro-benzo[b]thiophen-6-yl ester] | ≥ 100 | 0.501 to 2
7 | CCOC(=O)OCC1CCc2c(sc(NC(=O)CCc3ccccc3OCC)c2C#N)C1 (stereo not drawn) [Example 151, Carbonic acid 3-cyano-2-[3-(2-ethoxy-phenyl)-propanoylamino]-4,5,6,7-tetrahydro-benzo[b]thiophen-6-ylmethyl ester ethyl ester] | ≥ 100 | ≤ 0.501
8 | CCOC(=O)OC1CCc2c(sc(NC(=O)CCc3ccccc3OCC)c2C#N)C1 (stereo not drawn) [Example 152, Carbonic acid 3-cyano-2-[3-(2-ethoxy-phenyl)-propanoylamino]-4,5,6,7-tetrahydro-benzo[b]thiophen-6-yl ester ethyl ester] | ≥ 100 | ≤ 0.501
9 | CCNC(=O)OC1CCc2c(sc(NC(=O)CCc3ccccc3OCC)c2C#N)C1 (stereo not drawn) [Example 153, Ethyl-carbamic acid 3-cyano-2-[3-(2-ethoxy-phenyl)-propanoylamino]-4,5,6,7-tetrahydro-benzo[b]thiophen-6-yl ester] | ≥ 10 | ≤ 0.501
10 | CCOc1ccccc1CCC(=O)Nc1sc2c(c1C#N)CCC(OC(=O)OCc1ccccc1)C2 (stereo not drawn) [Example 154, Carbonic acid benzyl ester 3-cyano-2-[3-(2-ethoxy-phenyl)-propanoylamino]-4,5,6,7-tetrahydro-benzo[b]thiophen-6-yl ester] | ≥ 100 | 0.501 to 2
11 | CCOc1ccccc1CCC(=O)Nc1sc2c(c1C#N)CCC(OC(=O)NCc1ccccc1)C2 (stereo not drawn) [Example 155, Benzyl-carbamic acid 3-cyano-2-[3-(2-ethoxy-phenyl)-propanoylamino]-4,5,6,7-tetrahydro-benzo[b]thiophen-6-yl ester] | ≥ 100 | ≤ 0.501
12 | CCNC(=O)OC[C@H]1CCc2c(sc(NC(=O)CCc3cccnc3)c2C#N)C1 [Example 156a, (S)-Ethyl-carbamic acid 3-cyano-2-(3-pyridin-3-yl-propanoylamino)-4,5,6,7-tetrahydro-benzo[b]thiophen-6-ylmethyl ester] | ≥ 100 | 0.501 to 2
13 | CCOC(=O)OC1CCc2c(sc(NC(=O)CCc3cccnc3)c2C#N)C1 (stereo not drawn) [Example 158, Carbonic acid 3-cyano-2-(3-pyridin-3-yl-propanoylamino)-4,5,6,7-tetrahydro-benzo[b]thiophen-6-yl ester ethyl ester] | ≥ 100 | 0.501 to 2
14 | CCNC(=O)OCC1CCc2c(sc(NC(=O)CCc3ccccc3OCC)c2C#N)C1 (stereo not drawn) [Example 159, Ethyl-carbamic acid 3-cyano-2-[3-(2-ethoxy-phenyl)-propanoylamino]-4,5,6,7-tetrahydro-benzo[b]thiophen-6-ylmethyl ester] | ≥ 100 | ≤ 0.501

Second part, led by results:

Row | IC50 [1] [µM] | SMILES | IC50 [2] [µM]
15 | ≥ 100 | CN(C(=O)OCC1CCc2c(sc(NC(=O)/C=C/c3cccnc3)c2C#N)C1)C1CCCC1 (stereo not drawn) [Example 138, Cyclopentyl-methyl-carbamic acid 3-cyano-2-((E)-3-pyridin-3-yl-allanoylamino)-4,5,6,7-tetrahydro-benzo[b]thiophen-6-ylmethyl ester] | 0.501 to 2
16 | ≥ 100 | N#Cc1c(NC(=O)/C=C/c2cccnc2)sc2c1CCC(COC(=O)n1cccc1)C2 (stereo not drawn) [Example 141, Pyrrole-1-carboxylic acid 3-cyano-2-((E)-3-pyridin-3-yl-allanoylamino)-4,5,6,7-tetrahydro-benzo[b]thiophen-6-ylmethyl ester] | 0.501 to 2
17 | ≥ 100 | N#Cc1c(NC(=O)/C=C/c2cccnc2)sc2c1CCC(OC(=O)NC1CCCCC1)C2 (stereo not drawn) [Example 142, Cyclohexyl-carbamic acid 3-cyano-2-((E)-3-pyridin-3-yl-allanoylamino)-4,5,6,7-tetrahydro-benzo[b]thiophen-6-yl ester] | 0.501 to 2
18 | ≥ 100 | N#Cc1c(NC(=O)/C=C/c2cccnc2)sc2c1CCC(COC(=O)N1CC[C@@H](O)C1)C2 (stereo partly drawn) [Example 145, (R)-3-Hydroxy-pyrrolidine-1-carboxylic acid 3-cyano-2-((E)-3-pyridin-3-yl-allanoylamino)-4,5,6,7-tetrahydro-benzo[b]thiophen-6-ylmethyl ester] | ≤ 0.501
19 | ≥ 100 | N#Cc1c(NC(=O)/C=C/c2cccnc2)sc2c1CCC(COC(=O)NC1COC1)C2 (stereo not drawn) [Example 149, Oxetan-3-yl-carbamic acid 3-cyano-2-((E)-3-pyridin-3-yl-allanoylamino)-4,5,6,7-tetrahydro-benzo[b]thiophen-6-ylmethyl ester] | 0.501 to 2
20 | ≥ 100 | CCNC(=O)OCC1CCc2c(sc(NC(=O)CCc3cccnc3)c2C#N)C1 (stereo not drawn) [Example 156, Ethyl-carbamic acid 3-cyano-2-(3-pyridin-3-yl-propanoylamino)-4,5,6,7-tetrahydro-benzo[b]thiophen-6-ylmethyl ester] | 0.501 to 2
21 | ≥ 100 | N#Cc1c(NC(=O)CCc2cccnc2)sc2c1CCC(COC(=O)NCc1ccccc1)C2 (stereo not drawn) [Example 157, Benzyl-carbamic acid 3-cyano-2-(3-pyridin-3-yl-propanoylamino)-4,5,6,7-tetrahydro-benzo[b]thiophen-6-ylmethyl ester] | ≤ 0.501
